Blank lines part the entries; values can stand above or below the compound they belong to.
Key:
MDA-MB-231 = assay: cells; assay type: functional, cell-based; details: Homo sapiens, MDA-MB-231, 48 h
U-266 = assay: cells; assay type: functional, cell-based; details: Homo sapiens, U-266, 48 h
HepG2 [1] = assay: cells; assay type: functional, cell-based; details: Homo sapiens, HepG2, 48 h
Histone deacetylase 3 = Histone deacetylase 3 (Homo sapiens, UniProt O15379); assay: Inhibition of recombinant HDAC3 (unknown origin) using Boc-Lys (acetyl)-AMC as substrate preincubated for 1 hr followed by substrate addition and measured after 2 hrs by fluorescence based analysis
cells = assay type: functional, cell-based; details: Homo sapiens, SPCA1, 48 h
SK-OV-3 [2] = assay: cells; assay type: functional, cell-based; details: Homo sapiens, SK-OV-3, 48 h
Calu-3 = assay: cells; assay type: functional, cell-based; details: Homo sapiens, Calu-3, 48 h
HepG2 [3] = assay: animal or person; assay type: functional, Homo sapiens; details: Mus musculus, HepG2, po, 384 h, route ig, time 16 day
U-937 = assay: cells; assay type: functional, cell-based; details: Homo sapiens, U-937, 48 h
K562 = assay: cells; assay type: functional, cell-based; details: Homo sapiens, K562, 48 h
PANC-1 = assay: cells; assay type: functional, cell-based; details: Homo sapiens, PANC-1, 48 h
MDA-MB-468 = assay: cells; assay type: functional, cell-based; details: Homo sapiens, MDA-MB-468, 48 h
SK-OV-3 [4] = assay: Antiproliferative activity against human SK-OV-3 cells assessed as inhibition of cell growth incubated for 72 hrs by CCK-8 assay; assay type: functional, cell-based; details: SK-OV-3, 72 h
[5] = biological target: T1, Protein deacetylase HDAC6 (Homo sapiens, UniProt Q9UBN7); assay: Inhibition of HDAC6 (unknown origin)
T1 sequence (Q9UBN7 whole entry): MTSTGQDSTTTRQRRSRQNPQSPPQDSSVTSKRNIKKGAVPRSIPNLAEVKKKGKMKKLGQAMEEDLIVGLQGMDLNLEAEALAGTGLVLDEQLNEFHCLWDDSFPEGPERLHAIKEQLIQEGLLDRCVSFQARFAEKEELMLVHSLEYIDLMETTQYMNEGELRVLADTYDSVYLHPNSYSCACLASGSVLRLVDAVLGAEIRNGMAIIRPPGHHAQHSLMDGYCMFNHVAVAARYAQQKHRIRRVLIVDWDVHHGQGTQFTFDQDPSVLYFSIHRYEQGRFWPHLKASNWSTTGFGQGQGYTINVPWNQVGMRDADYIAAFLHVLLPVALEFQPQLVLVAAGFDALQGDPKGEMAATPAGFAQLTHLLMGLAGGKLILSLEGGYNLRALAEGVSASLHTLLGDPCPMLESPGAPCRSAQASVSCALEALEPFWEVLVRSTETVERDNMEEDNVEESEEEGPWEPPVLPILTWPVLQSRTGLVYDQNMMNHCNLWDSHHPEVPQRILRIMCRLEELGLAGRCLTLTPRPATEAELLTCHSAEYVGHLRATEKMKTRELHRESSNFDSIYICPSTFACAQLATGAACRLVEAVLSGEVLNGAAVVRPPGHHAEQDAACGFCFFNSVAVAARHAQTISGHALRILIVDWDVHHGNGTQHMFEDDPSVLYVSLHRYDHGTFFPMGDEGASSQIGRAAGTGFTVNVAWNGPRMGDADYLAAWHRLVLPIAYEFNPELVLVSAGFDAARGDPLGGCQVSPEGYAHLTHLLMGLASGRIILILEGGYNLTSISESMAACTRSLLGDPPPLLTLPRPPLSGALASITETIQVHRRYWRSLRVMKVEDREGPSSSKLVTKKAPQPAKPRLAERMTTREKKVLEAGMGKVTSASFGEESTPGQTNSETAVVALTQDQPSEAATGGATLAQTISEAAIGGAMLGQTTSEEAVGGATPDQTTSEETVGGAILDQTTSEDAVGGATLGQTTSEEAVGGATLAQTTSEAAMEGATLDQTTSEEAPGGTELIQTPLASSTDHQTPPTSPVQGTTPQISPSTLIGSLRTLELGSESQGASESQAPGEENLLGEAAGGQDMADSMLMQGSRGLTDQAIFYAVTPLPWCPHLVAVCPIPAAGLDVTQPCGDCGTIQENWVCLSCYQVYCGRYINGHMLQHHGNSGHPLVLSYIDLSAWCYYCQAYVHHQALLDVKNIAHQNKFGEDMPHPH

SK-OV-3 [6] = assay: Antitumor activity against human SK-OV-3 cells xenografted in female Balb/c nude mouse assessed as reduction in tumor growth at 50 mg/kg, sc administered once a day and measured every 2 to 3 days for 19 days relative to control; assay type: functional; parameters: scale not given: the % may be the effect or the level left; details: time 19 day
A2780 = assay: Antiproliferative activity against human A2780 cells assessed as inhibition of cell growth incubated for 72 hrs by CCK-8 assay; assay type: functional, cell-based; details: A2780, 72 h
Histone deacetylase = assay: Inhibition of HDAC in human HeLa cell nuclear extract using Boc-Lys(Ac)-AMC as substrate preincubated for 15 mins followed by substrate addition and measured after 60 mins by fluorescence based analysis; assay type: subcellular, Nucleus
[7] = biological target: MAP kinase-interacting serine/threonine-protein kinase 1 (Homo sapiens) (UniProt Q9BUB5); assay: Inhibition of MNK1 (unknown origin) at 1 uM incubated for 60 mins by HTRF assay relative to control
PC-3 = assay: cells; assay type: functional; details: Homo sapiens, time 96 hrs
[8] = biological target: MAP kinase-interacting serine/threonine-protein kinase 2 (Homo sapiens) (UniProt Q9HBH9); assay: Inhibition of MNK2 (unknown origin) at 1 uM incubated for 60 mins by HTRF assay relative to control
MCF7 = assay: Antiproliferative activity against human MCF7 cells assessed as inhibition of cell growth by MTT assay; assay type: functional, cell-based
HCT-116 = assay: Antiproliferative activity against human HCT-116 cells assessed as inhibition of cell growth by MTT assay; assay type: functional, cell-based
A-431 = assay: Antiproliferative activity against human A-431 cells assessed as inhibition of cell growth by MTT assay; assay type: functional, cell-based
[9] = biological target: E3 ubiquitin-protein ligase Mdm2 (Homo sapiens) (UniProt Q00987); assay: Inhibition of MDM2 (unknown origin) using biotinylated P53 peptide as substrate at 1 uM by HTRF assay relative to control
U-87 MG [10] = assay: cells; assay type: functional, cell-based, U-87MG ATCC; details: Homo sapiens, 72 h
Description: Antiproliferative activity against human U-87 MG cells assessed as inhibition of cell growth measured after 72 hrs by MTT assay

U-87 MG [11] = assay: Antitumor activity against luciferase-transferred human U-87 MG cells xenografted in athymic nude mouse assessed as survival time at 25 mg/kg, po measured for 20 days; assay type: functional, U-87MG ATCC; details: time 20 day
C6 [12] = assay: cells; assay type: functional, cell-based; details: Rattus norvegicus, C6, 72 h
Description: Antiproliferative activity against rat C6 cells assessed as inhibition of cell growth measured after 72 hrs by MTT assay

C6 [13] = assay: Antitumor activity against rat C6 cells allografted in Sprague-Dawley rat assessed as survival time at 20 mg/kg, po measured for 20 days; assay type: functional; details: time 20 day

MAP kinase-interacting serine/threonine-protein kinase 2 (Homo sapiens), sequence (Q9HBH9 whole entry, looked up): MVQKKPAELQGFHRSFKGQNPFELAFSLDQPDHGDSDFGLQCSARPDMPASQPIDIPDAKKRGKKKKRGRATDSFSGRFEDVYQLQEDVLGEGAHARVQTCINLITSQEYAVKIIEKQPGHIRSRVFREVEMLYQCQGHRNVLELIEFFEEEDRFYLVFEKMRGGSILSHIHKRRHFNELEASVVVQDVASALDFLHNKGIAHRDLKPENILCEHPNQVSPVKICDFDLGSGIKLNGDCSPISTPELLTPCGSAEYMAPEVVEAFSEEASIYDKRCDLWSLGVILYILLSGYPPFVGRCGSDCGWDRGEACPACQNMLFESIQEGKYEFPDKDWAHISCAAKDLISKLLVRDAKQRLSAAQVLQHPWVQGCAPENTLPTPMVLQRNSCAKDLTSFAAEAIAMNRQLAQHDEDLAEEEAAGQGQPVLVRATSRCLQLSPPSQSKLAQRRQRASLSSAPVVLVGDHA
Histone deacetylase 3, sequence (O15379 whole entry): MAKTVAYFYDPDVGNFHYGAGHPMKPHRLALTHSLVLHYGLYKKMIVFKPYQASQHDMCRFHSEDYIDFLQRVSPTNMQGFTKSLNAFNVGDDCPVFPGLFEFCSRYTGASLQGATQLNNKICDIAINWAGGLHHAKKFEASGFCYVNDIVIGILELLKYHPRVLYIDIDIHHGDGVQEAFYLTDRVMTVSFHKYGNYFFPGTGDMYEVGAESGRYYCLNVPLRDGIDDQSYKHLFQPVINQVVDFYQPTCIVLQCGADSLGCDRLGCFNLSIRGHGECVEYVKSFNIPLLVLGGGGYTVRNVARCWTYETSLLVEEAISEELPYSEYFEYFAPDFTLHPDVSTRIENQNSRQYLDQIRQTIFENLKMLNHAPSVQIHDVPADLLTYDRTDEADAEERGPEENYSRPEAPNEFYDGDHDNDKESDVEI
E3 ubiquitin-protein ligase Mdm2 (Homo sapiens), sequence (Q00987 whole entry, looked up): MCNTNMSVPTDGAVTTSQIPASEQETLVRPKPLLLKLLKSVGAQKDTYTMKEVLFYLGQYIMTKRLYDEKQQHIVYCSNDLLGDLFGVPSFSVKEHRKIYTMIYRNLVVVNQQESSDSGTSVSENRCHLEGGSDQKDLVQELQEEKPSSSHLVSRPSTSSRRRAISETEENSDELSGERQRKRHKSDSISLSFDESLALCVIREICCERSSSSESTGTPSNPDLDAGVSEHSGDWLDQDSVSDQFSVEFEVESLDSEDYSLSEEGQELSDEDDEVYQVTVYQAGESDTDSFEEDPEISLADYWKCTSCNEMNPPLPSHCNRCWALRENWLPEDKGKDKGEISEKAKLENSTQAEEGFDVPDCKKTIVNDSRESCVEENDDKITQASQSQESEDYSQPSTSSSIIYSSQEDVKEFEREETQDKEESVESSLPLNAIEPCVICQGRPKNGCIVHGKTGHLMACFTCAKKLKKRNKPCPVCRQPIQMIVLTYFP
MAP kinase-interacting serine/threonine-protein kinase 1 (Homo sapiens), sequence (Q9BUB5 whole entry, looked up): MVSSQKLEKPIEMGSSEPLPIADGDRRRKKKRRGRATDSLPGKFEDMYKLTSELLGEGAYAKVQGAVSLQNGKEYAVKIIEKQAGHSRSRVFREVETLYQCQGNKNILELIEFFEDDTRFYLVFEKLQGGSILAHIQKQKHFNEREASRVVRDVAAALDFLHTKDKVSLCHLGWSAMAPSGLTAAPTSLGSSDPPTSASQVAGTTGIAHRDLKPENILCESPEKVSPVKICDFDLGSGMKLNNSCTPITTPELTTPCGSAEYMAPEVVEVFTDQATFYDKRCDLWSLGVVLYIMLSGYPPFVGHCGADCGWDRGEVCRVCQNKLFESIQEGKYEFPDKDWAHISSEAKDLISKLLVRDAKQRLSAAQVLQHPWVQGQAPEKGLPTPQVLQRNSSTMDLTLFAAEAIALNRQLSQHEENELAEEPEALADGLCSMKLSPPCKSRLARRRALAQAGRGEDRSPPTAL

Compound: O=C(CCCCCCC(=O)N1CCC(C(=O)Nc2ccc([C@@H]3[C@H]4CSCN4[C@]4(C(=O)Nc5cc(Cl)ccc54)[C@H]3C(=O)c3ccccc3)cc2)CC1)NO
IC50 (MCF7): 1370 nM | IC50 (HCT-116): 1370 nM | IC50 (A-431): 1370 nM | inhibition [9]: 65%

Compound: O=C(/C=C/c1cccc(S(=O)(=O)n2ccc3cccnc32)c1)NO
IC50 (U-87 MG [10]): 1850 nM | IC50 [5]: 32 nM | Survival (U-87 MG [11]): >20 days | IC50 (C6 [12]): 2250 nM | Survival (C6 [13]): >20 days

More lines, main results first:

IC50 (MDA-MB-231): 160 nM | IC50 (U-266): 160 nM | IC50 (HepG2 [1]): 160 nM | IC50 (Histone deacetylase 3): 13.9 nM | IC50 (cells): 160 nM | IC50 (SK-OV-3 [2]): 160 nM | IC50 (Calu-3): 160 nM | IC50 (U-937): 160 nM | IC50 (K562): 160 nM | IC50 (PANC-1): 160 nM | IC50 (MDA-MB-468): 160 nM
Compound: Cn1cc(CCCC(=O)Nc2ccc(C(=O)NO)cc2)c2ccccc21
inhibition in vivo at 50 mg/kg (HepG2 [3]): 33.1%

IC50 (SK-OV-3 [4]): 870 nM | IC50 [5]: 180 nM | IC50 (A2780): 5400 nM
Compound: COc1ccc(-c2cc(-c3ccc(C(C)C)cc3)cnc2NCc2ccc(C(=O)NO)cc2)cc1
Activity (SK-OV-3 [6]): ~35%

IC50 (Histone deacetylase): 780 nM | inhibition [7]: 54% | GI50 (PC-3): 2910 nM | inhibition [8]: 70%
Compound: O=C(CCCCCCC(=O)Nc1ccc2ncnc(Nc3ccc(F)cc3)c2n1)NO
